The record followed here is patent US20230399341A1, “7-PHENYL SUBSTITUTED 2-AMINOQUINAZOLINE INHIBITORS OF HPK1” (MERCK SHARP & DOHME LLC, priority 2020, published 2023).

As usually defined, the IC50 is the concentration needed to halve the response being measured. High values mean a need for much substance, low ones inhibition by little substance.

The target in this assay is T1, Human HPK1, catalytic domain (Homo sapiens, UniProt Q92918).
T1 sequence (Q92918 1-346): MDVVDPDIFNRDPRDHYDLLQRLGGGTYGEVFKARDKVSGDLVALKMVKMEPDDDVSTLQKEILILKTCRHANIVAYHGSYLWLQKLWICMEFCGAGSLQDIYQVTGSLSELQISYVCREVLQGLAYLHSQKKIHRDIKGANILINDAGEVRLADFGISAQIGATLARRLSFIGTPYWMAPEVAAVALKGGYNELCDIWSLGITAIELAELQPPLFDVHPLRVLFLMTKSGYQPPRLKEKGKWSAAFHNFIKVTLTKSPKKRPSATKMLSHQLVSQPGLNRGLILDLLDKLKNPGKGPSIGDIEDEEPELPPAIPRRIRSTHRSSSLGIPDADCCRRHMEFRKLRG
The assay can be described thus: HPK1-SLP76 TR-FRET Assay. It counts as biochemical. The settings on record: 75 pM HPK1, ATP 10 uM, SLP76 10 nM, 30 min pre-incubation, 60 min reaction. (In general: TR-FRET usually uses a lanthanide donor and a delayed reading to cut background.)

`COc1cc2c(cc1Nc1ncc3ccc(NC4(C)COC4)cc3n1)CN(C)CC2` [Compound 3-55, N~2~-(6-methoxy-2-methyl-1,2,3,4-tetrahydroisoquinolin-7-yl)-N~7~-(3-methyloxetan-3-yl)quinazoline-2,7-diamine]: the IC50 is 240 nM.

For `COc1cc2c(cc1Nc1ncc3ccc(-c4cnn(C(F)F)c4)cc3n1)CN(C)CC2` [Compound 1-26, 7-[1-(difluoromethyl)-1H-pyrazol-4-yl]-N-(6-methoxy-2-methyl-1,2,3,4-tetrahydroisoquinolin-7-yl)quinazolin-2-amine], half-maximal inhibition (IC50) required 10.8 nM.

On to `COc1cc2c(cc1Nc1ncc3ccc(NCC(=O)N(C)C)cc3n1)CN(C)CC2` [Compound 3-71, N~2~-{2-[(6-methoxy-2-meth-yl-1,2,3,4-tetrahydroisoquinolin-7-yl)amino]quinazolin-7-yl}-N,N-dimethylglycinamide], for which the IC50 turned out to be 91.7 nM.

With `Cc1c(-c2cc3nc(Nc4ccc(CS(=O)(=O)CC(F)(F)F)cc4)ncc3c(N)c2F)cnc2c1NCCO2` [Compound 2-149, 6-fluoro-7-(8-methyl-2,3-dihydro-1H-pyrido[2,3-b][1,4]oxazin-7-yl)-N~2~- {4-[(2,2,2-trifluoroethanesulfonyl)methyl]phenyl}quinazoline-2,5-diamine], the IC50 is 0.194 nM. This IC50 lies about 470-fold lower than the previous one.

Regarding `Cc1c(-c2cc3nc(Nc4ccc5c(c4)CN(C)CC5)ncc3c(N)c2F)cnc2nc[nH]c12` [Compound 2-162, 6-fluoro-7-(7-methyl-1H-imidazo[4,5-b]pyridin-6-yl)-N~2~-(2-methyl-1,2,3,4-tetrahydroisoquinolin-7-yl)quinazoline-2,5-diamine], the concentration for half-maximal inhibition (IC50) came out at 0.126 nM.

As to `Cc1c(-c2c(F)c(N)c3cnc(Nc4ccc(CS(C)(=O)=O)cc4)nc3c2Cl)cnc2c1NCC(C)(C)O2` [Compound 2-161, (+ and −)-8-chloro-6-fluoro-N~2~-{4-[(methylsulfonyl)methyl]phenyl}-7-(3,3,8-trimethyl-2,3-dihydro-1H-pyrido[2,3-b][1,4]oxazin-7-yl)quinazoline-2,5-diamine], the midpoint of inhibition, the IC50, lay at 0.252 nM.

`Cc1c(-c2cc3nc(Nc4ccc(CS(C)(=O)=O)cc4)ncc3c(N)c2F)cnc2c1NCC(C)(C)O2` [Compound 2-165, 6-fluoro-N~2~-{4-[(methylsulfonyl)methyl]phenyl}-7-(3,3,8-trimethyl-2,3-dihydro-1H-pyrido[2,3-b][1,4]oxazin-7-yl)quinazoline-2,5-diamine] came in with an IC50 of 0.103 nM.

Compound `COc1cc2c(cc1Nc1ncc3c(N)c(F)c(-c4cnc5c(c4C)NCCO5)cc3n1)CN(C(C)=O)CC2` [Compound 2-12, 1-[7-{[5-amino-6-fluoro-7-(8-methyl-2,3-dihydro-1H-pyrido[2,3-b][1,4]oxazin-7-yl)quinazolin-2-yl]amino}-6-methoxy-3,4-dihydroisoquinolin-2(1H)-yl]ethan-1-one] yielded an IC50 of 685 nM.

In the case of `Cc1c(-c2cc3nc(Nc4ccc5c(c4)CN(C)CC5)ncc3c(N)c2F)cnc2c1NCCO2` [Compound 2-70, 6-fluoro-7-(8-methyl-2,3-dihydro-1H-pyrido[2,3-b][1,4]oxazin-7-yl)-N˜2˜-(2-methyl-1,2,3,4-tetrahydroisoquinolin-7-yl)quinazoline-2,5-diamine], the midpoint of inhibition, the IC50, lay at 0.0508 nM.

`Cc1c(-c2c(F)c(N)c3cnc(Nc4ccc(CS(=O)(=O)C(C)C)cc4)nc3c2Cl)cnc2c1NCCO2` [Compound 2-133, (+ and −)-8-chloro-6-fluoro-7-(8-methyl-2,3-dihydro-1H-pyrido[2,3-b][1,4]oxazin-7-yl)-N~2~- (4-{[(propan-2-yl)sulfonyl]methyl}phenyl) quinazoline-2,5-diamine]: the midpoint of inhibition, the IC50, lay at 0.405 nM.

For `CNC(=O)c1ccc(Nc2ncc3c(N)c(F)c(-c4cnc5c(c4C)NCCO5)cc3n2)cc1` [Compound 2-23, 4-{[5-amino-6-fluoro-7-(8-methyl-2,3-dihydro-1H-pyrido[2,3-b][1,4]oxazin-7-yl)quinazolin-2-yl]amino}-N-methylbenzamide], the IC50 was determined as 0.0508 nM.

`COc1cc2c(cc1Nc1ncc3ccc(-c4ccc(C#N)nc4)cc3n1)CN(C)CC2` [Compound 1-103, 5-{2-[(6-methoxy-2-methyl-1,2,3,4-tetrahydroisoquinolin-7-yl)amino]quinazolin-7-yl}pyridine-2-carbonitrile] yielded an IC50 of 328 nM.

`Cc1c(-c2c(F)c(N)c3cnc(Nc4ccc(N5CCOC5=O)cc4)nc3c2Cl)cnc2c1NCCO2` [Compound 2-159] yielded an IC50 of 47 nM.

`COc1cc2c(cc1Nc1ncc3ccc(NCC4(C)COC4)cc3n1)CN(C)CC2` [Compound 3-62, N~2~-(6-methoxy-2-methyl-1,2,3,4-tetrahydroisoquinolin-7-yl)-N~7-[(3-methyloxetan-3-yl)-methyl]quinazoline-2,7-diamine]: the IC50 was 111 nM.

Regarding `COc1cc2c(cc1Nc1ncc3ccc(-c4cnc5[nH]c(=O)[nH]c5c4)cc3n1)CN(C)CC2` [Compound 1-106, 6-{2-[(6-methoxy-2-methyl-1,2,3,4-tetrahydroisoquinolin-7-yl)amino]quinazolin-7-yl}-1,3-dihydro-2H-imidazo[4,5-b]pyridin-2-one], the 50% inhibitory concentration (IC50) amounted to 44.1 nM.

As to `Cc1c(-c2cc3nc(Nc4ccc5c(c4)CN(C)CC5)ncc3cc2F)cnc2c1NCCO2` [Compound 1-114, 6-fluoro-7-(8-methyl-2,3-dihydro-1H-pyrido[2,3-b][1,4]oxazin-7-yl)-N-(2-methyl-1,2,3,4-tetrahydroisoquinolin-7-yl)quinazolin-2-amine], half-maximal inhibition (IC50) was put at 0.0883 nM. Compared with the last compound, the IC50 is about 500-fold lower.

Consider `COc1cc(S(N)(=O)=O)ccc1Nc1ncc2c(N)c(F)c(-c3cnc4c(c3C)NCCO4)cc2n1` [Compound 2-6, 4-{[5-amino-6-fluoro-7-(8-methyl-2,3-dihydro-1H-pyrido[2,3-b][1,4]oxazin-7-yl)quinazolin-2-yl]amino}-3-methoxybenzene-1-sulfonamide], for which the IC50 came out at 48.1 nM.

In turn, `CC(=O)NC1CCc2cc(Nc3ncc4c(N)c(F)c(-c5cnc6c(c5C)NCCO6)cc4n3)ccc21` (single isomer, unassigned) [Compound 2-11, (S or R)—N-(5-((5-amino-6-fluoro-7-(8-methyl-2,3-dihydro-1H-pyrido[2,3-b][1,4]oxazin-7-yl)quinazolin-2-yl)amino)-2,3-dihydro-1H-inden-1-yl)acetamide] had an IC50 of 0.0821 nM.

Turning to `COc1cc2c(cc1Nc1ncc3c(N)c(F)c(-c4cnc5c(c4C)NCCO5)cc3n1)C(C)N(C)C(C)C2` (racemic) [Compound 2-48, (R,R and S,S)-6-fluoro-N~2~-(6-methoxy-1,2,3-trimethyl-1,2,3,4-tetrahydroisoquinolin-7-yl)-7-(8-methyl-2,3-dihydro-1H-pyrido[2,3-b][1,4]oxazin-7-yl)quinazoline-2,5-diamine], the IC50 amounted to 0.696 nM.

In turn, `Cc1c(-c2cc3nc(Nc4cc5c(cc4F)CCN(C)C5)ncc3c(N)c2F)cnc2c1NCCO2` [Compound 2-59, 6-fluoro-N~2~-(6-fluoro-2-methyl-1,2,3,4-tetrahydroisoquinolin-7-yl)-7-(8-methyl-2,3-dihydro-1H-pyrido[2,3-b][1,4]oxazin-7-yl)quinazoline-2,5-diamine] registered an IC50 of 0.0508 nM.

Take `Cc1c(-c2cc3nc(Nc4ccc5c(c4)C4CCC5N4C)ncc3c(N)c2F)cnc2c1NCCO2` (stereo not drawn) [Compound 2-121, 6-fluoro-7-(8-methyl-2,3-dihydro-1H-pyrido[2,3-b][1,4]oxazin-7-yl)-N~2~- (9-methyl-1,2,3,4-tetrahydro-1,4-epiminonaphthalen-6-yl)quinazoline-2,5-diamine]: the IC50 amounted to 0.0248 nM.

`Cc1c(-c2c(F)c(N)c3cnc(Nc4ccc(CS(C)(=O)=O)cc4)nc3c2Cl)cnc2c1NCCO2` [Compound 2-92, (+ or −)-8-chloro-6-fluoro-7-(8-methyl-2,3-dihydro-1H-pyrido[2,3-b[1,4]oxazin-7-yl)-N~2~- {4-[(methylsulfonyl)methyl]phenyl}quinazoline-2,5-diamine]: the midpoint of inhibition, the IC50, lay at 0.0399 nM.

The compound `COc1cc2c(cc1Nc1ncc3ccc(-c4ccc(CC#N)cc4)cc3n1)CNCC2` [Compound 1-64, (4-{2-[(6-methoxy-1,2,3,4-tetrahydroisoquinolin-7-yl)amino]quinazolin-7-yl}phenyl)acetonitrile] registered an IC50 of 82 nM.

Regarding `CNC(=O)c1ccc(-c2ccc3cnc(Nc4cc5c(cc4OC)CCNC5)nc3c2)cn1` [Compound 1-28, 5-{2-[(6-methoxy-1,2,3,4-tetrahydroisoquinolin-7-yl)amino]quinazolin-7-yl}-N-methylpyridine-2-carboxamide], the IC50 worked out at 198 nM.

As to `CCc1ccc(Nc2ncc3c(N)c(F)c(-c4cnc5c(c4C)NCCO5)cc3n2)cn1` [Compound 2-173, N~2~-(6-ethylpyridin-3-yl)-6-fluoro-7-(8-methyl-2,3-dihydro-1H-pyrido[2,3-b][1,4]oxazin-7-yl)quinazoline-2,5-diamine], the IC50 is 0.128 nM. This IC50 lies about 1500-fold lower than the previous one.

In turn, `Cc1c(-c2cc3nc(Nc4ccc5c(c4)CN(C)CC5(F)F)ncc3c(N)c2F)cnc2c1NCCO2` [Compound 2-154, N~2~-(4,4-difluoro-2-methyl-1,2,3,4-tetrahydroisoquinolin-7-yl)-6-fluoro-7-(8-methyl-2,3-dihydro-1H-pyrido[2,3-b][1,4]oxazin-7-yl)quinazoline-2,5-diamine] returned a concentration for half-maximal inhibition (IC50) of 0.515 nM. Compared with the last compound, the IC50 is about 4-fold higher.

For the compound `CNCC1CN(c2ccc3cnc(Nc4cc5c(cc4OC)CCN(C)C5)nc3c2)C(=O)O1` (racemic) [Compound 3-12, (S and R)-3-12-[(6-methoxy-2-methyl-1,2,3,4-tetrahydroiso-quinolin-7-yl)amino]quinazolin-7-yl}-5-[(methylamino)methyl]-1,3-oxazolidin-2-one], the half-maximal inhibitory concentration (IC50) was determined as 94.2 nM.
